Measured values: ChEMBL document CHEMBL2074108, “Inhibition of P-glycoprotein activity and chemosensitization of multidrug-resistant ovarian carcinoma 2780AD cells by hexanoylglucosylceramide” (Biochem Biophys Res Commun, 1999)

How the values were obtained:
Format in all cases: functional, cell-based
[1] = molecular target: T1, ATP-dependent translocase ABCB1 (Homo sapiens, UniProt P08183); experiment: TP_TRANSPORTER: inhibition of Rhodamine 123 efflux (R123: 10 uM, C6-GalCer: 20 uM) in 2780AD cells
T1 sequence (P08183 whole entry): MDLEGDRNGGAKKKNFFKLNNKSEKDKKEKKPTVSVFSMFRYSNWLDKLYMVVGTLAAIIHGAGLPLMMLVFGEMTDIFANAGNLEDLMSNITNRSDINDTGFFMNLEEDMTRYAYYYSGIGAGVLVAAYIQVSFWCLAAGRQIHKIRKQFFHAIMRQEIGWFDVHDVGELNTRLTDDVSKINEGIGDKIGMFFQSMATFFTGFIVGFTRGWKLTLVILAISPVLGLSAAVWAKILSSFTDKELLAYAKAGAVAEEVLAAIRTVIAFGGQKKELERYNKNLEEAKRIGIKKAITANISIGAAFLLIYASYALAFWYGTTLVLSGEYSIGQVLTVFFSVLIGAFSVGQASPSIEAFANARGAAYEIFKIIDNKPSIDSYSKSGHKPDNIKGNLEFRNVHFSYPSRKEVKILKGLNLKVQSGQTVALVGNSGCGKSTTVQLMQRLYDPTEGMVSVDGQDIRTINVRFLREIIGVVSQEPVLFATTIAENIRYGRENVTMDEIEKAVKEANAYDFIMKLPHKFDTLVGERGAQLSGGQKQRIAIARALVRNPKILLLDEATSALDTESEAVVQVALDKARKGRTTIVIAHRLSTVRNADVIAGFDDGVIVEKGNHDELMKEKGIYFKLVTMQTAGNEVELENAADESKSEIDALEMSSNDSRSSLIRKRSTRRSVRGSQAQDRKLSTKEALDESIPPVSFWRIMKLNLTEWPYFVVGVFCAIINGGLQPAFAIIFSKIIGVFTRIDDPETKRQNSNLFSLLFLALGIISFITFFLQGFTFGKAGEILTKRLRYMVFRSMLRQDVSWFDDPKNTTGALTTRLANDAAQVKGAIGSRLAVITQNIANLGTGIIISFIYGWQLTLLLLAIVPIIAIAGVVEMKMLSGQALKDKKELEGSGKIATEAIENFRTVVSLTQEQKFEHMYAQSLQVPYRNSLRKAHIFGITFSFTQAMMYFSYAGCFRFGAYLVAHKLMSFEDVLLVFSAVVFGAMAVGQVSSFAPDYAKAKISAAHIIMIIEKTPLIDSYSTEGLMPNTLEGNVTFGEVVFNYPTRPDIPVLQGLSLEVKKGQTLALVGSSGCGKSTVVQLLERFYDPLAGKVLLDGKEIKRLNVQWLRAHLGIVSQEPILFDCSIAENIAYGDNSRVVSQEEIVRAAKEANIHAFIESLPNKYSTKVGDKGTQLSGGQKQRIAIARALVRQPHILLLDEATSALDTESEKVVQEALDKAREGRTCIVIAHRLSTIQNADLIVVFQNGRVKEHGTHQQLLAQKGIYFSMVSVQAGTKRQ

[2] = molecular target: T1, ATP-dependent translocase ABCB1; experiment: TP_TRANSPORTER: inhibition of Rhodamine 123 efflux (R123: 10 uM, C6-GlcCer: 20 uM) in 2780AD cells
[3] = molecular target: T1, ATP-dependent translocase ABCB1; experiment: TP_TRANSPORTER: inhibition of Rhodamine 123 efflux (R123: 10 uM, C6-LacCer: 20 uM) in 2780AD cells
[4] = molecular target: T1, ATP-dependent translocase ABCB1; experiment: TP_TRANSPORTER: inhibition of Rhodamine 123 efflux (R123: 10 uM, C6-SM: 10 uM) in 2780AD cells

**Q.** CCCCCCCCCCCCC/C=C/[C@@H](O)[C@H](CO[C@@H]1O[C@H](CC)[C@H](O)[C@H](O)[C@H]1O)NC(=O)CCCCCC was tested. Which Activity [1] did it give?
**A.** inhibitor [+]

**Q.** CCCCCCCCCCCCC/C=C/[C@@H](O)[C@H](CO[C@@H]1O[C@H](CC)[C@@H](O)[C@H](O)[C@H]1O)NC(=O)CCCCCC was tested. Which Activity [2] did it give?
**A.** inhibitor [+]

**Q.** How did the Activity [3] turn out when CCCCCCCCCCCCC/C=C/[C@@H](O)[C@H](CO[C@@H]1O[C@H](CC)[C@@H](O[C@@H]2O[C@H](CO)[C@@H](O)[C@H](O)[C@H]2O)[C@H](O)[C@H]1O)NC(=O)CCCCCC was run?
**A.** inhibitor [+]

**Q.** How did the Activity [4] turn out when CCCCCCCCCCCCCCCC(O)C(CO)NC(=O)CCCCCC (centres undefined) was run?
**A.** inhibitor [+]
